Laboratory results taken from patent publication US20190177284A1, “TETRAZOLYL-CONTAINING CYCLOPROPANECARBOXAMIDES” (Bayer Pharma Aktiengesellschaft, priority 2017, published 2019).

Target: T1, human Bradykinin B1 receptor (Homo sapiens, UniProt P46663)
T1 construct: host or cells: CHO-K1
T1 sequence (P46663 1-353): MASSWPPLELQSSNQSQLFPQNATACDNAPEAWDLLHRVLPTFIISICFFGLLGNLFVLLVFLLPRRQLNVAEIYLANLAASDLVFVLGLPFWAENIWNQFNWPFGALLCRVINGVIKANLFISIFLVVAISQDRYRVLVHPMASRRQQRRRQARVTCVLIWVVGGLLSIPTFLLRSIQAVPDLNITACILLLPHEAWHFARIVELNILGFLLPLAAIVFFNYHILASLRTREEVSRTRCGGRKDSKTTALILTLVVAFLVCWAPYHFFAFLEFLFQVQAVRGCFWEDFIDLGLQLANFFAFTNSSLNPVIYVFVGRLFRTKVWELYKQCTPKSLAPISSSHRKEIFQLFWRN
Assay: Calcium flux Assay (FLIPR) with cells expressing human Bradykinin B1 receptor (hB1)
Format: cell-based
Conditions: absence of 0.1% BSA in assay buffer; CHO-K1 cell line expressing human B1 receptor; agonist Lys-(Des-Arg)-Bradykinin; read-out: hB1 free IC50
Method: The potency to inhibit the Bradykinin B1 receptor was determined for the compound examples of this invention in a cell-based fluorescent calcium-mobilisation assay. The assay measures the ability of compound examples to inhibit Bradykinin B1 receptor agonist-induced increase of intracellular free Ca^2+ in the cell line expressing Bradykinin B1 receptor. Specifically, calcium indicator-loaded cells are pre-incubated in the absence or presence of different concentrations of compound examples followed by the stimulation with a selective Bradykinin B1 receptor agonist peptide. The change of the intracellular Ca^2+ concentration is monitored with a fluorescent plate reader FLIPR^TETRA®
Calcium flux Assays (FLIPR) with cells expressing human Bradykinin B1 receptor (hB1) Calcium flux Assay (FLIPR) with recombinant cells for Bradykinin B1 receptor antagonist, either in the presence (hB1 IC50) or absence (hB1 free IC50) of 0.1% Bovine Serum Albumin (BSA) in assay buffer.
CHO—K1 cell line expressing human B1 receptor was purchased from Euroscreen (Gosselies, Belgium, with reference name hB1-D1). The cells were grown in Nutrient Mixture Ham's F12 (Sigma) containing 10% Foetal bovine serum (Sigma) and 400 μg/mL G418 (Sigma), 5 μg/mL puromycin (Sigma).
For the calcium flux assay, 80% confluent cells were detached from the culture vessels with Versene (Gibco), and seeded into 384-well plates (Cell binding Surface; Corning, N.Y.; #3683) at a density of 15,000 cells per well. Cells were seeded in a volume of 50 μL in medium without antibiotics and incubated overnight in a humidified atmosphere with 5% CO2 at 37° C. […] The calcium indicator loaded cells were incubated at 37° C. for 2 hrs. Extracellular dye was then removed and each well was filled with 45 μL of assay buffer. Cell plates were kept in dark until used. Example compounds were assayed at 8 concentrations in triplicate. Serial 10-fold dilutions in 100% DMSO were made at a 100-times higher concentration than the final concentration, and then diluted 1:10 in assay buffer. 5 μL of each diluted compound was added to the well of cell plates (yielding final concentration with 1% DMSO), and incubated for 30 min at 28° C. before the addition of B1 receptor agonist on the FLIPR instrument.
Agonist plates contained the agonist Lys-(Des-Arg)-Bradykinin (Bachem, Brackley) at 3.5×EC90 in assay buffer with 1% DMSO. The addition of agonist 20 μl per well to the assay plate was carried out on the FLIPR instrument while continuously monitoring Ca^2+-dependent fluorescence at 538 nm. A peptide antagonist Lys-(Des-Arg-Leu)-Bradykinin (Bachem, Brackley) at 20 μM was used to determine the full inhibition as control.
Peak fluorescence was used to determine the response to agonist obtained at each concentration of example compound by the following equation:
% Response=100*(RFU(example compound)−RFU(control))/(RFU(DMSO)−RFU(control)) • RFU means relative fluorescence units. • Control means full inhibition by the peptide antagonist Lys-(Des-Arg-Leu)-Bradykinin at 20
The response values were plotted against the logarithm of the example compound concentrations. The example compounds were tested in triplicates per plate and mean values were plotted in Excel XLfit to determine IC50 values, percentage of maximal inhibition and the Hill slopes.
IC50 values of example compounds in Calcium flux Assay (FLIPR) as shown in table 1 were determined according to the protocol described above in the absence of 0.1% BSA in assay buffer.

Row | SMILES | IC50 [nM]
1 | COCC(C)OC(=O)c1ccc(NC(=O)C2(c3ccc(C(F)(F)F)cc3F)CC2)cc1-c1nnn[nH]1 (racemic) [Example 32, 1-Methoxypropan-2-yl 4-[({1-[2-fluoro-4-(trifluoromethyl)phenyl]cyclopropyl}carbonyl)amino]-2-(1H-tetrazol-5-yl)benzoate] | 13
2 | O=C(OC1CCC1)c1ccc(NC(=O)C2(c3ccc(C(F)(F)F)cc3F)CC2)cc1-c1nnn[nH]1 [Example 30, Cyclobutyl 4-[({1-[2-fluoro-4-(trifluoromethyl)phenyl]cyclopropyl}carbonyl)amino]-2-(1H-tetrazol-5-yl)benzoate] | 2
3 | CC(C)(C)COC(=O)c1ccc(NC(=O)C2(c3ccc(C(F)(F)F)cc3F)CC2)cc1-c1nnn[nH]1 [Example 29, 2,2-Dimethylpropyl 4-[({1-[2-fluoro-4-(trifluoromethyl)phenyl]cyclopropyl}carbonyl)amino]-2-(1H-tetrazol-5-yl)benzoate] | 6
4 | O=C(NC1CCCCC1)c1ccc(NC(=O)C2(c3ccc(C(F)(F)F)cc3F)CC2)cc1-c1nnn[nH]1 [Example 42, N-cyclohexyl-4-[({1-[2-fluoro-4-(trifluoromethyl)phenyl]cyclopropyl}carbonyl)amino]-2-(1H-tetrazol-5-yl)benzamide] | 34
5 | Cc1cc(NC(=O)C2(c3ccc(C(F)(F)F)cc3F)CC2)cc(-c2nnn[nH]2)c1C(=O)O[C@H]1CCOC1 [Example 65, (3S)-tetrahydrofuran-3-yl 4-[({1-[2-fluoro-4-(trifluoromethyl)phenyl]cyclopropyl}carbonyl)amino]-2-methyl-6-(1H-tetrazol-5-yl)benzoate] | 62
6 | Cc1ccc(NC(=O)c2ccc(NC(=O)C3(c4ccc(C(F)(F)F)cc4F)CC3)cc2-c2nnn[nH]2)cn1 [Example 57, 4-[({1-[2-Fluoro-4-(trifluoromethyl)phenyl]cyclopropyl}carbonyl)amino]-N-(6-methylpyridin-3-yl)-2-(1H-tetrazol-5-yl)benzamide] | 29
7 | O=C(OCC1CCOCC1)c1ccc(NC(=O)C2(c3ccc(C(F)(F)F)cc3F)CC2)cc1-c1nnn[nH]1 [Example 22, Tetrahydro-2H-pyran-4-ylmethyl 4-[({1-[2-fluoro-4-(trifluoromethyl)phenyl]cyclopropyl}carbonyl)amino]-2-(1H-tetrazol-5-yl)benzoate] | 18
8 | CN(C(=O)c1ccc(NC(=O)C2(c3cccc(Cl)c3)CC2)cc1-c1nnn[nH]1)C1CCCC1 [Example 40, 4-({[1-(3-Chlorophenyl)cyclopropyl]carbonyl}amino)-N-cylcopentyl-N-methyl-2-(1H-tetrazol-5-yl)benzamide] | 1240
9 | Cc1ccc(NC(=O)c2c(C)cc(NC(=O)C3(c4ccc(C(F)(F)F)cc4F)CC3)cc2-c2nnn[nH]2)nc1 [Example 66, 4-[({1-[2-fluroo-4-(trifluoromethyl)phenyl]cyclopropyl}carbonyl)amino]-2-methyl-N-(5-methylpyridin-2-yl)-6-(1H-tetrazol-5-yl)benzamide] | 1450
10 | CN(CC1CCCCC1)C(=O)c1ccc(NC(=O)C2(c3ccc(C(F)(F)F)cc3F)CC2)cc1-c1nnn[nH]1 [Example 12, N-(cyclohexylmethyl)-4-[({1-[2-fluoro-4-(trifluoromethyl)phenyl]cyclopropyl}carbonyl)amino]-N-methyl-2-(1H-tetrazol-5-yl)benzamide] | 412
11 | CC[C@H](C)NC(=O)c1ccc(NC(=O)C2(c3ccc(C(F)(F)F)cc3F)CC2)cc1-c1nnn[nH]1 [Example 38, N-[(2S)-butan-2-yl]-4-[({1-[2-fluoro-4-(trifluoromethyl)phenyl]cyclopropyl}carbonyl)amino]-2-(1H-tetrazol-5-y)benzamide] | 80
12 | O=C(O[C@@H]1CCOC1)c1ccc(NC(=O)C2(c3ccc(C(F)(F)F)cc3F)CC2)cc1-c1nnn[nH]1 [Example 20, (3R)-Tetrahydrofuran-3-yl 4-[({1-[2-fluoro-4-(trifluoromethyl)phenyl]cyclopropyl}carbonyl)amino]-2-(1H-tetrazol-5-yl)benzoate] | 14
13 | O=C(N[C@@H]1CCOC1)c1ccc(NC(=O)C2(c3ccc(C(F)(F)F)cc3F)CC2)cc1-c1nnn[nH]1 [Example 53, 4-[({1-[2-Fluoro-4-(trifluoromethyl)phenyl]cyclopropyl}carbonyl)amino]-N-[(3R)-tetrahydrofuran-3-yl]-2-(1H-tetrazol-5-yl)benzamide] | 3610
14 | CCC(C)(C)OC(=O)c1ccc(NC(=O)C2(c3ccc(C(F)(F)F)cc3F)CC2)cc1-c1nnn[nH]1 [Example 15, 2-Methylbutan-2-yl 4-[({1-[2-fluoro-4-(trifluoromethyl)phenyl]cyclopropyl}carbonyl)amino]-2-(1H-tetrazol-5-yl)benzoate] | 5220
15 | O=C(OC1CCCC1)c1ccc(NC(=O)C2(c3ccc(C(F)(F)F)cc3F)CC2)cc1-c1nnn[nH]1 [Example 6, Cyclopentyl 4-[({1-[2-fluoro-4-(trifluoromethyl)phenyl]cyclopropyl}carbonyl)amino]-2-(1H-tetrazol-5-yl)benzoate] | 9
16 | CC[C@H](C)OC(=O)c1ccc(NC(=O)C2(c3ccc(OC(F)(F)F)cc3F)CC2)cc1-c1nnn[nH]1 [Example 27, (2S)-Butan-2-yl 4-[({1-[2-fluoro-4-(trifluoromethoxy)phenyl]cyclopropyl}carbonyl)amino]-2-(1H-tetrazol-5-yl)benzoate] | 2
17 | O=C(OC1CCCCC1)c1ccc(NC(=O)C2(c3ccc(C(F)(F)F)cc3F)CC2)cc1-c1nnn[nH]1 [Example 16, Cyclohexyl 4-[({1-[2-fluoro-4-(trifluoromethyl)phenyl]cyclopropyl}carbonyl)amino]-2-(1H-tetrazol-5-yl)benzoate] | 5
18 | CCC(C)N(C)C(=O)c1ccc(NC(=O)C2(c3ccc(C(F)(F)F)cc3F)CC2)cc1-c1nnn[nH]1 (single isomer, unassigned) [Example 58, N-sec-butyl-4-[({1-[2-fluoro-4-(trifluoromethyl)phenyl]cyclopropyl}carbonyl)-amino]-N-methyl-2-(1H-tetrazol-5-yl)benzamide] | 1850
19 | O=C(NC1CCCC1)c1ccc(NC(=O)C2(c3ccc(C(F)(F)F)cc3F)CC2)cc1-c1nnn[nH]1 [Example 39, N-cyclopentyl-4-[({1-[2-fluoro-4-(trifluoromethyl)phenyl]cyclopropyl}carbonyl)amino]-2-(1H-tetrazol-5-yl)benzamide] | 34
20 | Cc1ccc(C2(C(=O)Nc3ccc(C(=O)OC4CCCC4)c(-c4nnn[nH]4)c3)CC2)c(F)c1 [Example 5, Cyclopentyl 4-({[1-(2-fluoro-4-methylphenyl)cyclopropyl]carbonyl}amino)-2-(1H-tetrazol-5-yl)benzoate] | 25
21 | O=C(OC1CCCC1)c1ccc(NC(=O)C2(c3ccc(F)c(F)c3)CC2)cc1-c1nnn[nH]1 [Example 4, Cyclopentyl 4-({[1-(3,4-difluorophenyl)cyclopropyl]carbonyl}amino)-2-(1H-tetrazol-5-yl)benzoate] | 59
22 | CCC(C)OC(=O)c1ccc(NC(=O)C2(c3ccc(C)cc3F)CC2)cc1-c1nnn[nH]1 (racemic) [Example 9, sec-Butyl 4-({[1-(2-fluoro-4-methylphenyl)cycloporopyl]carbonyl}amino)-2-(1H-tetrazol-5-yl)benzoate] | 17
